Reference: patent US12264134B2 (Merck Sharp & Dohme LLC, priority 2018, dated 2025)

target: IDO1 (Homo sapiens, UniProt P14902); assay: IDO1 Cellular Assay in HeLa Cells Stimulated with IFNγ; type: cell-based; conditions: read-out: HeLa Cell Potency, IC50
Sequence (P14902 whole entry): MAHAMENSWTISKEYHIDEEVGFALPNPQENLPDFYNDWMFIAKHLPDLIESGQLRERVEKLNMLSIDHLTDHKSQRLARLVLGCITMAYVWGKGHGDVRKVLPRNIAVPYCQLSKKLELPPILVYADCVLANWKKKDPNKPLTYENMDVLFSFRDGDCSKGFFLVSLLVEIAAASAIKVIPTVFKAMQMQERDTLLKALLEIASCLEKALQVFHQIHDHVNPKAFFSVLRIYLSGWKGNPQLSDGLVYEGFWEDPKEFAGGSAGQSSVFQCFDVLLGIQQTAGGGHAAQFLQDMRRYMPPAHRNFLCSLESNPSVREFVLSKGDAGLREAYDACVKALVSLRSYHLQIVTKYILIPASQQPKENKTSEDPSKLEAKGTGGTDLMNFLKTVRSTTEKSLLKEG

Row | SMILES | IC50
1 | Cc1cccc(N2CCN(C(=O)Cn3nc(C(=O)N4CCC(O)C(F)(F)C4)c4c3CCC4)CC2)c1C (centres unmarked) [Example 205, 2-[3-(3,3-difluoro-4-hydroxy-piperidine-1-carbonyl)-5,6-dihydro-4H-cyclopenta[c]pyrazol-1-yl]-1-[4-(2,3-dimethylphenyl)piperazin-1-yl]ethanone] | 17.1 nM
2 | Cc1cccc(N2CCN(C(=O)Cn3nc(C(=O)N4CC[C@@H](N)[C@H](F)C4)c4c3CCC4)CC2)c1C [Example 207, [(3R,4R)-1-[1-[2-[4-(2,3-dimethylphenyl)piperazin-1-yl]-2-oxo-ethyl]-5,6-dihydro-4H-cyclopenta[c]pyrazole-3-carbonyl]-3-fluoro-4-piperidyl]ammonium;formate] | 28 nM
3 | Cc1cccc(N2CCN(C(=O)Cn3nc(C(=O)N4CC[C@H](N)[C@H](F)C4)c4c3CCC4)CC2)c1C [Example 211, [(3R,4S)-1-[1-[2-[4-(2,3-dimethylphenyl)piperazin-1-yl]-2-oxo-ethyl]-5,6-dihydro-4H-cyclopenta[c]pyrazole-3-carbonyl]-3-fluoro-4-piperidyl]ammonium;formate] | 72.1 nM
4 | Cc1cccc(N2CCN(C(=O)Cn3nc(C(=O)N4CCC(F)(F)C(O)C4)c4c3CCC4)CC2)c1C (centres unmarked) [Example 212, 2-[3-(4,4-difluoro-3-hydroxy-piperidine-1-carbonyl)-5,6-dihydro-4H-cyclopenta[c]pyrazol-1-yl]-1-[4-(2,3-dimethylphenyl)piperazin-1-yl]ethanone] | 79.9 nM
5 | Cc1cccc(N2CCN(C(=O)Cn3nc(C(=O)N4CC[C@@H](N)[C@@H](F)C4)c4c3CCC4)CC2)c1C [Example 214, [(3S,4R)-1-[1-[2-[4-(2,3-dimethylphenyl)piperazin-1-yl]-2-oxo-ethyl]-5,6-dihydro-4H-cyclopenta[c]pyrazole-3-carbonyl]-3-fluoro-4-piperidyl]ammonium;formate] | 105 nM
6 | Cc1cccc(N2CCN(C(=O)Cn3nc(C(=O)N4CCCCC45CC5)c4c3C[C@H]3C[C@@H]43)CC2)c1C [Example 215, 2-[(3bR,4aSR)-3-(4-azaspiro[2.5]octane-4-carbonyl)-3b,4,4a,5-tetrahydro-1H-cyclopropa[3,4]cyclopenta[1,2-c]pyrazol-1-yl]-1-[4-(2,3-dimethylphenyl)piperazin-1-yl]ethan-1-one] | 1.38 nM
7 | Cc1cccc(N2CCN(C(=O)Cn3nc(C(=O)N4CCC(O)CC4(C)C)c4c3C[C@H]3C[C@@H]43)CC2)c1C (stereo partly drawn) [Example 216, 1-[4-(2,3-dimethylphenyl)piperazin-1-yl]-2-[(3bR,4aR)-3-(4-hydroxy-2,2-dimethylpiperidine-1-carbonyl)-3b,4,4a,5-tetrahydro-1H-cyclopropa[3,4]cyclopenta[1,2-c]pyrazol-1-yl]ethan-1-one] | 7.25 nM
8 | CNC(=O)NC1CCN(C(=O)c2nn(CC(=O)N3CCN(c4cccc(C)c4C)CC3)c3c2[C@@H]2C[C@@H]2C3)CC1 [Example 217, 1-(1-((3bR,4aR)-1-(2-(4-(2,3-dimethylphenyl)piperazin-1-yl)-2-oxoethyl)-3b,4,4a,5-tetrahydro-1H-cyclopropa[3,4]cyclopenta[1,2-c]pyrazole-3-carbonyl)piperidin-4-yl)-3-methylurea] | 2.1 nM
9 | Cc1cccc(N2CCN(C(=O)Cn3nc(C(=O)N4CC[C@@H]5[C@H](CCC(=O)N5C)C4)c4c3C[C@H]3C[C@@H]43)CC2)c1C [Example 218, (4aR,8aR)-6-((3bR,4aR)-1-(2-(4-(2,3-dimethylphenyl)piperazin-1-yl)-2-oxoethyl)-3b,4,4a,5-tetrahydro-1H-cyclopropa[3,4]cyclopenta[1,2-c]pyrazole-3-carbonyl)-1-methyloctahydro-1,6-naphthyridin-2(1H)-one] | 0.64 nM
10 | Cc1cccc(N2CCN(C(=O)Cn3nc(C(=O)N4CCC5(CC4)CC(=O)N5)c4c3C[C@H]3C[C@@H]43)CC2)c1C [Example 219, 7-[(3bR,4aR)-1-{2-[4-(2,3-dimethylphenyl)piperazin-1-yl]-2-oxoethyl}-3b,4,4a,5-tetrahydro-1H-cyclopropa[3,4]cyclopenta[1,2-c]pyrazole-3-carbonyl]-1,7-diazaspiro[3.5]nonan-2-one] | 0.86 nM
11 | Cc1cccc(N2CCN(C(=O)Cn3nc(C(=O)N4CCC(C)(C(N)=O)CC4)c4c3C[C@H]3C[C@@H]43)CC2)c1C [Example 220, 1-[(3bR,4aR)-1-{2-[4-(2,3-dimethylphenyl)piperazin-1-yl]-2-oxoethyl}-3b,4,4a,5-tetrahydro-1H-cyclopropa[3,4]cyclopenta[1,2-c]pyrazole-3-carbonyl]-4-methylpiperidine-4-carboxamide] | 1.53 nM
12 | Cc1cccc(N2CCN(C(=O)Cn3nc(C(=O)N4CCC(CO)(CO)CC4)c4c3C[C@H]3C[C@@H]43)CC2)c1C [Example 221, 2-{(3bR,4aR)-3-[4,4-bis(hydroxymethyl)piperidine-1-carbonyl]-3b,4,4a,5-tetrahydro-1H-cyclopropa[3,4]cyclopenta[1,2-c]pyrazol-1-yl}-1-[4-(2,3-dimethylphenyl)piperazin-1-yl]ethan-1-one] | 3.76 nM
13 | Cc1cccc(N2CCN(C(=O)Cn3nc(C(=O)N4CCC(NS(N)(=O)=O)CC4)c4c3C[C@H]3C[C@@H]43)CC2)c1C [Example 222, N-{1-[(3bR,4aR)-1-{2-[4-(2,3-dimethylphenyl)piperazin-1-yl]-2-oxoethyl}-3b,4,4a,5-tetrahydro-1H-cyclopropa[3,4]cyclopenta[1,2-c]pyrazole-3-carbonyl]piperidin-4-yl}sulfuric diamide] | 6.23 nM
14 | Cc1cccc(N2CCN(C(=O)Cn3nc(C(=O)N4CC[C@@H](C#N)C4)c4c3C[C@H]3C[C@@H]43)CC2)c1C [Example 223, (3R)-1-[(3bR,4aR)-1-{2-[4-(2,3-dimethylphenyl)piperazin-1-yl]-2-oxoethyl}-3b,4,4a,5-tetrahydro-1H-cyclopropa[3,4]cyclopenta[1,2-c]pyrazole-3-carbonyl] pyrrolidine-3-carbonitrile] | 1.49 nM
15 | Cc1cccc(N2CCN(C(=O)Cn3nc(C(=O)N4CCCC5(C4)NC(=O)NC5=O)c4c3C[C@H]3C[C@@H]43)CC2)c1C (stereo partly drawn) [Example 224, 7-[(3bR,4aR)-1-{2-[4-(2,3-dimethylphenyl)piperazin-1-yl]-2-oxoethyl}-3b,4,4a,5-tetrahydro-1H-cyclopropa[3,4]cyclopenta[1,2-c]pyrazole-3-carbonyl]-1,3,7-triazaspiro[4.5]decane-2,4-dione] | 16.5 nM
16 | Cc1cccc(N2CCN(C(=O)Cn3nc(C(=O)N4CCCC(N5CCCC5=O)C4)c4c3C[C@H]3C[C@@H]43)CC2)c1C (stereo partly drawn) [Example 225, 1-{1-[(3bR,4aR)-1-{2-[4-(2,3-dimethylphenyl)piperazin-1-yl]-2-oxoethyl}-3b,4,4a,5-tetrahydro-1H-cyclopropa[3,4]cyclopenta[1,2-c]pyrazole-3-carbonyl]piperidin-3-yl}pyrrolidine-2-one] | 3.93 nM
17 | Cc1cccc(N2CCN(C(=O)Cn3nc(C(=O)N4CCCC(N5CCNC5=O)C4)c4c3C[C@H]3C[C@@H]43)CC2)c1C (stereo partly drawn) [Example 226, 1-{1-[(3bR,4aR)-1-{2-[4-(2,3-dimethylphenyl)piperazin-1-yl]-2-oxoethyl}-3b,4,4a,5-tetrahydro-1H-cyclopropa[3,4]cyclopenta[1,2-c]pyrazole-3-carbonyl]piperidin-3-yl}imidazolidin-2-one] | 6.33 nM
